{
  "source": "patent US4925855A",
  "about": "“Imidazole derivatives and antimycotics containing them” (CL Pharma Aktiengesellschaft, priority 1986, dated 1990)",
  "key": {"[1]": {"system": "Microsporum gypseum", "test": "MIC in serial dilution test, Microsporum gypseum", "format": "cell-based", "conditions": "Nannizzia gypsea, 336 h", "description": "(§1) The antimycotic activities of the compounds were measured by in vitro determination of the minimum inhibitory concentration (MIC) for yeasts, molds and dermatophytes.\n(§2) 6 dermatophytes, 2 yeasts and 4 molds were used for testing with fungi, as follows:\nMicrosporum gypseum (Mi.gyp.)\n(§3) The minimum inhibitory concentration (MIC) was determined in serial dilution tests in test tubes. The volume of the liquid nutrient medium in each test tube was 4.5 ml.\n(§4) The substances were dissolved in DMSO and diluted with sterile distilled water to 10 concentrations (100, 50, 25, 12.5, 6.25, 3.12, 1.56, 0.78, 0.39 and 0.19 μg/ml). 0.5 ml of each of these dilution steps was added to the liquid nutrient medium. Thus, a constant concentration of solvent in all the nutrient media was ensured, irrespective of the active compound concentration.\n(§5) A comparison solution which contained only the solvent in appropriate concentration was included when carrying out each of the tests.\n(§6) The individual strains were maintained on Sabouraud/beerwort agar slants and, before they were used in a test, they underwent a passage on a modified Sabouraud liquid nutrient medium. The strains were then harvested, washed and converted into a suspension of McFaerland 3 in the case of yeasts and molds and of McFaerland 4-5 in the case of dermatophytes.\n(§7) The amount of material inoculated (inoculum) was 100 μl/test tube (inoculated densities: yeasts […] of the liquid nutrient medium was 6.0. After inoculation had taken place the fungi were incubated at 22° C. for 14 days.\n(§8) The MIC was then determined. The concentration step at which growth was no longer visible on macroscopic inspection was used for the determination of the MIC. The comparison substance used was 1-(2-(2,4-dichlorophenyl)-2-(2,4-dichlorophenylmethoxy)ethyl)-1H-imidazoleas nitrate (compound A)."}, "[2]": {"system": "Candida albicans", "test": "MIC in serial dilution test, Candida albicans", "format": "cell-based", "conditions": "336 h", "description": "as §1, §2\nCandida albicans (C.alb.)\nas §3, §4, §5, §6, §7, §8"}, "[3]": {"system": "Candida tropicalis", "test": "MIC in serial dilution test, Candida tropicalis", "format": "cell-based", "conditions": "336 h", "description": "as §1, §2\nCandida tropicalis (C.trop.)\nas §3, §4, §5, §6, §7, §8"}, "[4]": {"system": "Aspergillus fumigatus", "test": "MIC in serial dilution test, Aspergillus fumigatus", "format": "cell-based", "description": "as §1, §2\nAspergillus fumigatus (Asp.fu.)\nas §3, §4, §5, §6, §7, §8"}, "[5]": {"test": "Determination of the lethal dose in mice, single oral administration", "format": "in vivo", "conditions": "for LD100: oral, administration once", "description": "(§9) Determination of the lethal dose of 1-(2-(2,4-dichlorophenyl)-2-(3-(4-chlorophenylthio)propylamino)ethyl)-1H-imidazole dihydrochloride (compound No. 19) in mice and rats on administration once.\n(§10) In each case, oral doses of 0, 500, 1,000 and 3,000 mg/kg of body weight were administered to four groups of female and male animals."}, "[6]": {"test": "Determination of the lethal dose in rats, single oral administration", "format": "in vivo", "conditions": "for LD100: oral, administration once", "description": "as §9, §10"}, "[7]": {"test": "Determination of the LD50 in mice by i.v. administration", "format": "in vivo", "conditions": "12.5-100 mg/kg", "description": "(§11) Determination of the LD50 of 1-(2-(2,4-di-chlorophenyl)-2-(3-(4-chlorophenylthio)propylamino)-ethyl)-1H-imidazole dihydrochloride (compound No. 19) in mice and rats by i.v. administration. In each case, 0 (0.9% NaCl solution), 12.5, 25.0, 50.0 and 100 mg/kg of body weight were injected i.v. into 5 groups of female and male animals."}, "[8]": {"test": "Determination of the LD50 in rats by i.v. administration", "format": "in vivo", "conditions": "12.5-100 mg/kg", "description": "as §11"}, "[9]": {"system": "Salmonella typhimurium strains TA 1535, TA 1537, TA 1538, TA 98 and TA 100", "test": "Potential to cause gene mutations in Salmonella typhimurium", "format": "cell-based", "conditions": "with or without metabolic activator (S 9 mix); 10-1,000 and 3.3-333.3 μg/plate", "description": "Compound No. 19 was investigated for its potential to cause gene mutations in five Salmonella typhimurium strains TA 1535, TA 1537, TA 1538, TA 98 and TA 100.\nThe following concentrations were tested, both with metabolic activator (S 9 mix) and without metabolic activator."}, "[10]": {"system": "Mucor mucedo minus", "test": "MIC in serial dilution test, Mucor mucedo minus", "format": "cell-based", "conditions": "336 h, pH 6, Mucor mucedo minus, pH 6.0, 22° C., 14 days, read-out: MIC values, Mu. mu-", "description": "as §1, §2\nMucor mucedo minus (Mu.mu^-)\nas §3, §4, §5, §6, §7, §8"}, "[11]": {"system": "Trichophyton mentagrophytes", "test": "MIC in serial dilution test, Trichophyton mentagrophytes", "format": "cell-based", "conditions": "336 h, pH 6, Trichophyton mentagrophytes, pH 6.0, 22° C., 14 days, read-out: MIC values, Tri. me.", "description": "as §1, §2\nTrichophyton mentagrophytes\nas §3, §4, §5, §6, §7, §8"}, "[12]": {"system": "Trichophyton rubrum", "test": "MIC in serial dilution test, Trichophyton rubrum", "format": "cell-based", "conditions": "336 h, pH 6, Trichophyton rubrum, pH 6.0, 22° C., 14 days, read-out: MIC values, Tri. ru.", "description": "as §1, §2\nTrichophyton rubrum (Tri.ru.)\nas §3, §4, §5, §6, §7, §8"}, "[13]": {"system": "Trichophyton verrucosum", "test": "MIC in serial dilution test, Trichophyton verrucosum", "format": "cell-based", "conditions": "336 h, pH 6, Trichophyton verrucosum, pH 6.0, 22° C., 14 days, read-out: MIC values, Tri. ve.", "description": "as §1, §2\nTrichophyton verrucosum (Tri.ve.)\nas §3, §4, §5, §6, §7, §8"}, "[14]": {"system": "Microsporum canis", "test": "MIC in serial dilution test, Microsporum canis", "format": "cell-based", "conditions": "336 h, pH 6, Microsporum canis, pH 6.0, 22° C., 14 days, read-out: MIC values, Mi. can", "description": "as §1, §2\nMicrosporum canis (Mi.can.)\nas §3, §4, §5, §6, §7, §8"}, "[15]": {"system": "Epidermophyton floccosum", "test": "MIC in serial dilution test, Epidermophyton floccosum", "format": "cell-based", "conditions": "336 h, pH 6, Epidermophyton floccosum, pH 6.0, 22° C., 14 days, read-out: MIC values, Ep. flo", "description": "as §1, §2\nEpidermophyton floccosum\nas §3, §4, §5, §6, §7, §8"}, "[16]": {"system": "Mucor mucedo plus", "test": "MIC in serial dilution test, Mucor mucedo plus", "format": "cell-based", "conditions": "336 h, pH 6, Mucor mucedo plus, pH 6.0, 22° C., 14 days, read-out: MIC values, Mu. mu+", "description": "as §1, §2\nMucor mucedo plus (Mu.mu^+)\nas §3, §4, §5, §6, §7, §8"}, "[17]": {"system": "Absidia ramosa", "test": "MIC in serial dilution test, Absidia ramosa", "format": "cell-based", "conditions": "Lichtheimia ramosa, 336 h, pH 6, Absidia ramosa; pH 6.0, 22° C., 14 days; read-out: MIC values, Abs. ra.", "description": "as §1, §2\nAbsidia ramosa (Abs.ra.)\nas §3, §4, §5, §6, §7, §8"}, "[18]": {"conditions": "oral, 500, 1,000 and 3,000 mg/kg"}},
  "note": "Like-named read-outs stand apart in the source and are kept apart here.",
  "data": [
    {"smiles": "Clc1ccc(COC(Cn2ccnc2)c2ccc(Cl)cc2Cl)c(Cl)c1", "note": "(stereo not drawn) [A, 1-(2-(2,4-dichlorophenyl)-2-(2,4-dichlorophenylmethoxy)ethyl)-1H-imidazole, reference compound]", "values": [
      {"measurement": "MIC", "setting": "[1]; pH 6, read-out: MIC values, Mi. gyp", "value": 3.12, "unit": "µg/mL"},
      {"measurement": "MIC", "setting": "[2]; pH 6, read-out: MIC values, C. alb", "value": 12.5, "unit": "µg/mL"},
      {"measurement": "MIC", "setting": "[3]; pH 6, read-out: MIC values, C. trop", "value": 12.5, "unit": "µg/mL"},
      {"measurement": "MIC values, Asp. fu.", "setting": "[4]; Aspergillus fumigatus, pH 6.0, 22° C., 14 days", "value": "3,12 μg/ml"}
    ]},
    {"smiles": "Cl.Cl.Clc1ccc(SCCCNC(Cn2ccnc2)c2ccc(Cl)cc2Cl)cc1", "note": "(stereo not drawn) [Compound No. 19, 1-(2-(2,4-dichlorophenyl)-2-(3-(4-chlorophenylthio)propylamino)ethyl)-1H-imidazole dihydrochloride]", "values": [
      {"measurement": "MIC values, Asp. fu.", "setting": "[4]; 20160 min, pH 6", "value": "0,78 μg/ml"},
      {"measurement": "LD100", "setting": "[5]; female", "value": "> 1,000 mg/kg"},
      {"measurement": "LD100", "setting": "[5]; male", "value": "> 500", "unit": "mg/kg"},
      {"measurement": "clinical signs", "setting": "[5]; [18]", "value": "Inactivity, convulsions"},
      {"measurement": "LD100", "setting": "[6]; female", "value": "> 500", "unit": "mg/kg"},
      {"measurement": "LD100", "setting": "[6]; male", "value": "> 1,000 mg/kg"},
      {"measurement": "clinical signs", "setting": "[6]; [18]", "value": "Inactivity, ruffled fur, convulsions"},
      {"measurement": "clinical signs", "setting": "[7]", "value": "Inactivity, necrotic tail"},
      {"measurement": "clinical signs", "setting": "[8]", "value": "Inactivity, necrotic tail, convulsions"},
      {"measurement": "mutagenic activity", "setting": "[9]", "value": "No mutagenic activity whatever was observed"}
    ]},
    {"smiles": "Clc1ccc(SCCNC(Cn2ccnc2)c2ccc(Cl)cc2Cl)cc1", "note": "(stereo not drawn) [compound 3]", "values": [
      {"measurement": "MIC values, Asp. fu.", "setting": "[4]; 20160 min, pH 6", "value": "6,25 μg/ml"}
    ]},
    {"smiles": "Clc1ccc(C(Cn2ccnc2)NCCSc2ccc(Br)cc2)c(Cl)c1", "note": "(stereo not drawn) [compound 4]", "values": [
      {"measurement": "MIC values, Asp. fu.", "setting": "[4]; 20160 min, pH 6", "value": "6,25 μg/ml"}
    ]},
    {"smiles": "COc1ccc(SCCNC(Cn2ccnc2)c2ccc(Cl)cc2Cl)cc1", "note": "(stereo not drawn) [compound 5]", "values": [
      {"measurement": "MIC values, Asp. fu.", "setting": "[4]; 20160 min, pH 6", "value": "12,5 μg/ml"}
    ]},
    {"smiles": "Clc1ccc(C(Cn2ccnc2)NCCSc2ccc3ccccc3c2)c(Cl)c1", "note": "(stereo not drawn) [compound 6]", "values": [
      {"measurement": "MIC", "setting": "[10]", "value": 12.5, "unit": "µg/mL"}
    ]},
    {"smiles": "Clc1ccc(SCCCNC(Cn2ccnc2)c2ccc(Br)cc2)cc1", "note": "(stereo not drawn) [compound 11]", "values": [
      {"measurement": "MIC values, Asp. fu.", "setting": "[4]; 20160 min, pH 6", "value": "6,25 μg/ml"}
    ]},
    {"smiles": "Clc1ccc(SCCNC(Cn2ccnc2)c2ccc(-c3ccccc3)cc2)cc1", "note": "(stereo not drawn) [compound 14]", "values": [
      {"measurement": "MIC", "setting": "[11]", "value": 0.78, "unit": "µg/mL"},
      {"measurement": "MIC", "setting": "[12]", "value": 1.56, "unit": "µg/mL"},
      {"measurement": "MIC", "setting": "[13]", "value": 0.78, "unit": "µg/mL"},
      {"measurement": "MIC", "setting": "[14]", "value": 6.25, "unit": "µg/mL"},
      {"measurement": "MIC", "setting": "[15]", "value": 0.78, "unit": "µg/mL"},
      {"measurement": "MIC", "setting": "[1]; Microsporum gypseum, pH 6.0, 22° C., 14 days, read-out: MIC values, Mi. gyp", "value": 3.12, "unit": "µg/mL"},
      {"measurement": "MIC", "setting": "[2]; pH 6.0, 22° C., 14 days, read-out: MIC values, C. alb", "value": 12.5, "unit": "µg/mL"},
      {"measurement": "MIC", "setting": "[3]; pH 6, Candida tropicalis, pH 6.0, 22° C., 14 days, read-out: MIC values, C. trop", "value": 12.5, "unit": "µg/mL"},
      {"measurement": "MIC values, Asp. fu.", "setting": "[4]; 20160 min, pH 6", "value": "3,12 μg/ml"},
      {"measurement": "MIC", "setting": "[16]", "value": 6.25, "unit": "µg/mL"},
      {"measurement": "MIC", "setting": "[10]", "value": 6.25, "unit": "µg/mL"},
      {"measurement": "MIC", "setting": "[17]", "value": 50, "unit": "µg/mL"}
    ]},
    {"smiles": "Clc1ccc(C(Cn2ccnc2)NCCCSc2ccccc2)c(Cl)c1", "note": "(stereo not drawn) [compound 16]", "values": [
      {"measurement": "MIC values, Asp. fu.", "setting": "[4]; 20160 min, pH 6", "value": "3,12 μg/ml"}
    ]},
    {"smiles": "Cc1ccc(SCCCNC(Cn2ccnc2)c2ccc(Cl)cc2Cl)cc1", "note": "(stereo not drawn) [compound 17]", "values": [
      {"measurement": "MIC values, Asp. fu.", "setting": "[4]; 20160 min, pH 6", "value": "0,78 μg/ml"}
    ]}
  ]
}
